For one assay, the target named is T1, MAT2A homodimer (Homo sapiens, UniProt P31153).
T1 construct: inferred from Ni sepharose purification with imidazole elution; made in house; host or cells: Sf9 insect cells, baculovirus (Bac to Bac, pFASTBAC1)
Put plainly: MAT2A inhibition (biochemical, liberated phosphate, PiColorLock Gold). As to conditions: recombinant MAT2A homodimer; IC50 bin with Max Inh.; read-out: Enzyme Inhibition Bin. A digest of the protocol:
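Enzyme at 4 μg/mL and compound equilibrated 60 min at 25 °C, then 60 min reaction after adding substrate mix (500 μM ATP, 400 μM methionine). Released phosphate quantified by colorimetric kit against a phosphate standard curve to give IC50. Secondary format used 1 μg/mL enzyme with 5 h incubation.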

For assay [1], the system named is SAM in HCT116 human colon carcinoma cell line with MTAP gene deleted (MTAP −/−). The assay can be described thus: Cellular assay of target engagement (SAM), LC-MS/MS, 72 hrs. The format is cell-based. Conditions: HCT-116, IC50 bin with Max Inh., read-out: Cell 72 h SAM Inhibition (MTAP −/−). A digest of the protocol:
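SAM levels were quantified by LC-MS/MS (m/z 399.2→250.1, d3-SAM internal standard) from cold methanol/acetic acid extracts, yielding IC50. Compound was applied as a 10-point 3-fold series for 72 hrs to MTAP −/− HCT116 cells seeded 24 hours before.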

The test system of the next assay is HCT116 MTAP−/−. Put plainly: Inhibition of cellular proliferation, 4 days, Cell Titer Glo, HCT116 MTAP−/−. The format is cell-based. Conditions: Homo sapiens, HCT-116, 96 h, IC50 bin with Max Inh., read-out: 4 Day Relative Growth Inhibition (MTAP −/−). The essentials: (§1)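 IC50 derived from blank-corrected ATP luminescence (Cell Titer Glo) expressed relative to within-plate 0.2% DMSO wells. Compound, as a 10-point 3-fold series, was added 24 h after seeding the MTAP+/+ or MTAP−/− HCT116 cells and incubated 4 days at 37° C./5% CO2.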

The next assay deals with HCT116 MTAP+/+. Put plainly: Inhibition of cellular proliferation, 4 days, Cell Titer Glo, HCT116 MTAP+/+. As to conditions: Homo sapiens, HCT-116, 96 h, IC50 bin with Max Inh., read-out: 4 Day Relative Growth Inhibition (MTAP +/+). It is filed as cell-based. The essentials: as §1
In general terms: ATP-based viability assays read luminescence as a measure of living cells.

SMILES strings stand for the structures. Some results are limits rather than exact numbers.

T1 sequence (P31153 whole entry): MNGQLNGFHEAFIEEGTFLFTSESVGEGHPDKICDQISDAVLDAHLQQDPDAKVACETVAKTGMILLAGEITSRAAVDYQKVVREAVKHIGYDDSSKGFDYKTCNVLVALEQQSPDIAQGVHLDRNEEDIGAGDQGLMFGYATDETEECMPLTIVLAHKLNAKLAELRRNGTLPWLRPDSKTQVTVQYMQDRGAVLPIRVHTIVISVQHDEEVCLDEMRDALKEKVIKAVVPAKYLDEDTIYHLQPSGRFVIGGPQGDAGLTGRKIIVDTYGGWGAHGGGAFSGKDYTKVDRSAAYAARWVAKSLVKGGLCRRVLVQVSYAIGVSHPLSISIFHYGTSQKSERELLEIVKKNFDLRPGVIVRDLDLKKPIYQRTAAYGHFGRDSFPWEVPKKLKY

With `Cn1cc2cc(-n3nc4c(C#N)cn(CC5CC5)c4c(-c4ccc(C5(O)CC5)nc4)c3=O)ccc2n1` [Example 256, 5-(cyclopropylmethyl)-4-(6-(1-hydroxycyclopropyl)pyridin-3-yl)-2-(2-methyl-2H-indazol-5-yl)-3-oxo-3,5-dihydro-2H-pyrrolo[3,2-c]pyridazine-7-carbonitrile], the IC50 at MAT2A homodimer is under 100 nM; in assay [1], 100 to 1000 nM; in the assay with HCT116 MTAP−/−, 100 to 1000 nM; in the assay with HCT116 MTAP+/+, over 1000 nM.

On to `C=C(CF)c1ccc(-c2c(=O)n(-c3ccc4nn(C)cc4c3)nc3c(C#N)cn(CC4CC4)c23)cn1` [Example 257, 5-(cyclopropylmethyl)-4-(6-(3-fluoroprop-1-en-2-yl)pyridin-3-yl)-2-(2-methyl-2H-indazol-5-yl)-3-oxo-3,5-dihydro-2H-pyrrolo[3,2-c]pyridazine-7-carbonitrile], for which the IC50 is under 100 nM at MAT2A homodimer, 100 to 1000 nM in assay [1], 100 to 1000 nM in the assay on HCT116 MTAP−/− and over 1000 nM in the assay on HCT116 MTAP+/+.

`Cc1ccc(-c2c(=O)n(-c3ccc4nn(C)cc4c3)nc3c(C(F)(F)F)cn(CC4CC4)c23)cn1` [Example 258, 5-(cyclopropylmethyl)-2-(2-methyl-2H-indazol-5-yl)-4-(6-methylpyridin-3-yl)-7-(trifluoromethyl)-2,5-dihydro-3H-pyrrolo[3,2-c]pyridazin-3-one]: the IC50 at MAT2A homodimer is under 100 nM; in assay [1] it was under 100 nM; in the assay on HCT116 MTAP−/−, under 100 nM; in the assay with HCT116 MTAP+/+, 100 to 1000 nM.

Turning to `Cn1cc2cc(-n3nc4c(CC#N)cn(CC5CC5)c4c(-c4ccc(C5CC5)nc4)c3=O)ccc2n1` [Example 259, 2-(5-(cyclopropylmethyl)-4-(6-cyclopropylpyridin-3-yl)-2-(2-methyl-2H-indazol-5-yl)-3-oxo-3,5-dihydro-2H-pyrrolo[3,2-c]pyridazin-7-yl)acetonitrile], the IC50 on MAT2A homodimer was under 100 nM; in assay [1] it was under 100 nM; with HCT116 MTAP−/−, under 100 nM; in the assay with HCT116 MTAP+/+, over 1000 nM.

Turning to `Cn1cc2cc(-n3nc4c(c(-c5ccc(C6CC6)nc5)c3=O)N(CC3CC3)CC4(C)C)ccc2n1` [Example 260, 5-(cyclopropylmethyl)-4-(6-cyclopropylpyridin-3-yl)-7,7-dimethyl-2-(2-methyl-2H-indazol-5-yl)-2,5,6,7-tetrahydro-3H-pyrrolo[3,2-c]pyridazin-3-one], the IC50 at MAT2A homodimer was 1000 to 10000 nM; in assay [1], over 1000 nM; in the assay on HCT116 MTAP−/−, over 1000 nM; with HCT116 MTAP+/+, over 1000 nM.

On to `Cc1cc2nn(-c3ccc4nn(C)cc4c3)c(=O)c(-c3ccc(C4CC4)nc3)c2n1CC1CC1` [Example 263, 5-(cyclopropylmethyl)-4-(6-cyclopropylpyridin-3-yl)-6-methyl-2-(2-methyl-2H-indazol-5-yl)-2,5-dihydro-3H-pyrrolo[3,2-c]pyridazin-3-one], for which the IC50 at MAT2A homodimer is under 1000 nM; in assay [1] it was under 100 nM; in the assay on HCT116 MTAP−/− it was over 1000 nM; in the assay on HCT116 MTAP+/+, over 1000 nM.

For the molecule `Cc1c(C#N)c2nn(-c3ccc4nn(C)cc4c3)c(=O)c(-c3ccc(OC(F)F)cc3)c2n1CC1CC1` [Example 264, 5-(cyclopropylmethyl)-4-(4-(difluoromethoxy)phenyl)-6-methyl-2-(2-methyl-2H-indazol-5-yl)-3-oxo-3,5-dihydro-2H-pyrrolo[3,2-c]pyridazine-7-carbonitrile], the IC50 on MAT2A homodimer is under 100 nM; in assay [1] it was under 100 nM; in the assay with HCT116 MTAP−/−, under 100 nM; in the assay on HCT116 MTAP+/+ it was over 1000 nM.

`CNCc1cn(CC2CC2)c2c(-c3ccc(C4CC4)nc3)c(=O)n(-c3ccc4nn(C)cc4c3)nc12` [Example 267, 5-(cyclopropylmethyl)-4-(6-cyclopropylpyridin-3-yl)-2-(2-methyl-2H-indazol-5-yl)-7-((methylamino)methyl)-2,5-dihydro-3H-pyrrolo[3,2-c]pyridazin-3-one]: the IC50 was under 100 nM on MAT2A homodimer, 100 to 1000 nM in assay [1], 100 to 1000 nM with HCT116 MTAP−/− and over 1000 nM with HCT116 MTAP+/+.

In the case of `Cn1cc2cc(-n3nc4c(C#N)cn(C[C@@H]5CC5(F)F)c4c(-c4ccc(C5CC5)nc4)c3=O)ccc2n1` [Example 268, (S)-4-(6-cyclopropylpyridin-3-yl)-5-((2,2-difluorocyclopropyl)methyl)-2-(2-methyl-2H-indazol-5-yl)-3-oxo-3,5-dihydro-2H-pyrrolo[3,2-c]pyridazine-7-carbonitrile], the IC50 at MAT2A homodimer was under 100 nM; in assay [1] it was under 100 nM; with HCT116 MTAP−/− it was under 100 nM; with HCT116 MTAP+/+, over 1000 nM.

For the molecule `Cn1cc2cc(-n3nc4c(C#N)cn(C[C@H]5CC5(F)F)c4c(-c4ccc(C5CC5)nc4)c3=O)ccc2n1` [Example 269, (R)-4-(6-cyclopropylpyridin-3-yl)-5-((2,2-difluorocyclopropyl)methyl)-2-(2-methyl-2H-indazol-5-yl)-3-oxo-3,5-dihydro-2H-pyrrolo[3,2-c]pyridazine-7-carbonitrile], the IC50 is under 100 nM on MAT2A homodimer, under 100 nM in assay [1], over 1000 nM in the assay with HCT116 MTAP−/− and over 1000 nM in the assay on HCT116 MTAP+/+.

Regarding `[2H]C([2H])([2H])n1cc2cc(-n3nc4c(C#N)cn(CC5CC5)c4c(-c4ccc(C5CC5)nc4)c3=O)ccc2n1` [Example 270, 5-(cyclopropylmethyl)-4-(6-cyclopropylpyridin-3-yl)-2-(2-(methyl-d3)-2H-indazol-5-yl)-3-oxo-3,5-dihydro-2H-pyrrolo[3,2-c]pyridazine-7-carbonitrile], the IC50 was under 100 nM at MAT2A homodimer, under 100 nM in assay [1], under 100 nM in the assay with HCT116 MTAP−/− and 100 to 1000 nM with HCT116 MTAP+/+.

Turning to `Cn1cc2cc(-n3nc4[nH]cc(CC5CC5)c4c(-c4ccc(OC(F)F)cc4)c3=O)ccc2n1` [Example 271, 5-(cyclopropylmethyl)-4-(4-(difluoromethoxy)phenyl)-2-(2-methyl-2H-indazol-5-yl)-2,7-dihydro-3H-pyrrolo[2,3-c]pyridazin-3-one], the IC50 at MAT2A homodimer was under 100 nM; in assay [1], under 100 nM; with HCT116 MTAP−/−, under 100 nM; with HCT116 MTAP+/+ it was 100 to 1000 nM.

Source of the values: patent publication US20220169654A1, “New Organic Compounds” (Servier Pharmaceuticals LLC, priority 2020, published 2022).
